Measurements published in patent US20160052898A1, “NOVEL COMPOUNDS” (BAYER PHARMA AKTIENGESELLSCHAFT, priority 2013, published 2016).
pIC50: −log10 of the molar value.

How the values were obtained:
[1] = tested on: HCT116 FOP control reporter cell line; assay: HCT116 FOP control vector reporter assay (non-functional TCF elements); type: cell-based; details: Homo sapiens, HCT-116, 36 h, HCT116 FOP control reporter cells, luciferase expression, 36 hours incubation, 50 μM to 15 nM; read-out: HCT116 FOPFlash IC50
In short: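 Stable HCT116 line carrying the non-functional FOP luciferase construct, 10000 cells/well plated 24 hrs before. Compounds 50 μM to 15 nM (3.16-fold steps) in CAFTY buffer pH 7.4 with 2 mM Ca2+, 36 hours at 37° C; luciferase luminescence read.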

[2] = tested on: constitutive active colorectal cancer cell (CRC) Wnt pathway; assay: HCT116 Super TopFlash cellular reporter assay (constitutive active Wnt pathway); type: cell-based; details: Homo sapiens, HCT-116, 36 h, HCT116 TOP reporter cells, luciferase expression, 36 hours incubation, 50 μM to 15 nM
In short: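 Luciferase luminescence served as the Wnt read-out after 36 h of compound treatment at 37 °C. Compound came from a pre-dilution series (50 μM down to 15 nM, 3.16-fold steps) in CAFTY buffer. Cells were stable HCT116 TOP reporter cells, with matched FOP-vector control cells tested in parallel, seeded a day earlier.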

Question: `COc1ccc(NC(=O)c2ccc(-c3cc(F)cc(F)c3)cc2)cc1NC(=O)CN1CCOCC1` [Example 199, 3′,5′-difluoro-N-{4-methoxy-3-[(morpholin-4-ylacetyl)amino]phenyl} biphenyl-4-carboxamide] was tested. Which pIC50 [1] did it give?
Answer: ≤ 4.30

Question: What about the pIC50 [2] of the same compound?
Answer: 5.76

Question: `COCCc1noc(-c2ccc(C(=O)Nc3ccc(-c4ccccc4)cc3)cc2NC(=O)CN2CCOCC2)n1` [Example 200, N-(biphenyl-4-yl)-4-[3-(2-methoxyethyl)-1,2,4-oxadiazol-5-yl]-3-[(morpholin-4-ylacetyl)amino]benzamide] was tested. Which pIC50 [1] did it give?
Answer: ≤ 4.30

Question: What about the pIC50 [2] of the same compound?
Answer: 5.76

Question: Which results are given for `COc1ccc(C(=O)Nc2ccc(-c3ccccc3)cc2)cc1NC(=O)CN1C[C@H]2C[C@@H]1CO2` [Example 201, N-(biphenyl-4-yl)-4-methoxy-3-{[(1R,4R)-2-oxa-5-azabicyclo[2.2.1]hept-5-ylacetyl)amino}benzamide]?
Answer: pIC50 [1]: ≤ 4.30; pIC50 [2]: 5.72

Question: How did the pIC50 [1] turn out when `COc1ccc(C(=O)Nc2ccc(-c3ccccc3)cc2)cc1NC(=O)CN1CCC(OC)C1` (centres unmarked) [Example 202, N-(biphenyl-4-yl)-4-methoxy-3-{[(3-methoxypyrrolidin-1-yl)acetyl]amino}benzamide] was run?
Answer: ≤ 4.30

Question: What about the pIC50 [2] of the same compound?
Answer: 5.72

Question: What does the source list for `COc1ccc(NC(=O)c2ccc(-c3ccccc3)c(F)c2)cc1NC(=O)CN1CCOCC1` [Example 203, 2-fluoro-N-{4-methoxy-3-[(morpholin-4-ylacetyl)amino]phenyl} biphenyl-4-carboxamide]?
Answer: pIC50 [1]: ≤ 4.30; pIC50 [2]: 5.69

Question: How did the pIC50 [1] turn out when `O=C(CN1CCOCC1)Nc1cc(C(=O)Nc2ccc(-c3ccccc3)cc2)ccc1CO` [Example 204, N-(biphenyl-4-yl)-4-(hydroxymethyl)-3-[(morpholin-4-ylacetyl)amino]benzamide] was run?
Answer: ≤ 4.30

Question: What about the pIC50 [2] of the same compound?
Answer: 5.65

Question: With `COc1ccc(NC(=O)c2ccc(-c3ccccc3)cc2)cc1NC(=O)CN1C[C@H]2C[C@@H]1CO2` [Example 205, N-(4-methoxy-3-{[(1R,4R)-2-oxa-5-azabicyclo[2.2.1]hept-5-ylacetyl]amino}phenyl) biphenyl-4-carboxamide] as the compound, how does the pIC50 [1] read?
Answer: ≤ 4.30

Question: And the pIC50 [2]?
Answer: 5.61

Question: With `COc1ccc(C(=O)Nc2ccc(-c3ccccc3)cc2)cc1NC(=O)C1(N2CCOCC2)CCC1` [Example 206, N-(biphenyl-4-yl)-4-methoxy-3-({[1-(morpholin-4-yl)cyclobutyl)carbonyl}amino)benzamide] as the compound, how does the pIC50 [1] read?
Answer: ≤ 4.30

Question: And the pIC50 [2]?
Answer: 5.61

Question: Which results are given for `COc1ccc(C(=O)Nc2ccc(-c3ccccc3)cc2)cc1NC(=O)CN1CC(OC)C1` [Example 207, N-(biphenyl-4-yl)-4-methoxy-3-{[(3-methoxyazetidin-1-yl)acetyl]amino}benzamide]?
Answer: pIC50 [1]: ≤ 4.30; pIC50 [2]: 5.59

Question: `COc1ccc(NC(=O)c2ccc(-c3ccc4c(c3)CCO4)cc2)cc1NC(=O)CN1CCOCC1` [Example 208, 4-(2,3-dihydro-1-benzofuran-5-yl)-N-{4-methoxy-3-[(morpholin-4-ylacetyl)amino]phenyl} benzamide] was tested. Which pIC50 [1] did it give?
Answer: ≤ 4.30

Question: What about the pIC50 [2] of the same compound?
Answer: 5.52

Question: `COc1ccc(NC(=O)c2ccc(-c3cccc(N)c3)cc2)cc1NC(=O)CN1CCOCC1` [Example 209, 3′-amino-N-{4-methoxy-3-[(morpholin-4-ylacetyl)amino]phenyl} biphenyl-4-carboxamide] was tested. Which pIC50 [1] did it give?
Answer: ≤ 4.30

Question: What about the pIC50 [2] of the same compound?
Answer: 5.45

Question: What does the source list for `COc1ccc(C(=O)Nc2ccc(-c3ccccc3)cc2)cc1N(C)C(=O)CN1CC2CCC(C1)O2` [Example 210, N-(biphenyl-4-yl)-4-methoxy-3-[methyl(8-oxa-3-azabicyclo[3.2.1]oct-3-ylacetyl)amino]benzamide]?
Answer: pIC50 [1]: ≤ 4.30; pIC50 [2]: 5.44

Question: How did the pIC50 [1] turn out when `NC(=O)COc1ccc(NC(=O)c2ccc(-c3ccccc3)cc2)cc1NC(=O)CN1CCOCC1` [Example 211, N-{4-(2-amino-2-oxoethoxy)-3-[(morpholin-4-ylacetyl)amino]phenyl} biphenyl-4-carboxamide] was run?
Answer: ≤ 4.30

Question: And the pIC50 [2]?
Answer: 5.41

Question: What does the source list for `COc1ccc(NC(=O)c2ccc(-c3ccccc3)cc2)cc1NC(=O)CN1C[C@@H](C)O[C@@H](C)C1` [Example 212, N-[3-({[(2R,6S)-2,6-dimethylmorpholin-4-yl]acetyl}amino)-4-methoxyphenyl]biphenyl-4-carboxamide]?
Answer: pIC50 [1]: ≤ 4.30; pIC50 [2]: 5.36

Question: `COc1ccc(NC(=O)c2ccc(-c3ccccc3)cc2)cc1NC(=O)CN1CCOC[C@@H]1CCO` [Example 213, N-[3-({[(3S)-3-(2-hydroxyethyl)morpholin-4-yl]acetyl}amino)-4-methoxyphenyl]biphenyl-4-carboxamide] was tested. Which pIC50 [1] did it give?
Answer: ≤ 4.30

Question: What about the pIC50 [2] of the same compound?
Answer: 5.34

Question: What does the source list for `COc1ccc(NC(=O)c2ccc(-c3ccccc3)cc2)cc1NC(=O)CN1CCO[C@H](CO)C1` [Example 214, N-[3-({[(2S)-2-(hydroxymethyl)morpholin-4-yl]acetyl}amino)-4-methoxyphenyl]biphenyl-4-carboxamide]?
Answer: pIC50 [1]: ≤ 4.30; pIC50 [2]: 5.31

Question: `COc1c(Cl)cc(C(=O)Nc2ccc(-c3ccccc3)cc2)cc1NC(=O)CN1CCN(C)CC1` [Example 215, N-(biphenyl-4-yl)-3-chloro-4-methoxy-5-{[(4-methylpiperazin-1-yl)acetyl]amino}benzamide] was tested. Which pIC50 [1] did it give?
Answer: 4.72

Question: What about the pIC50 [2] of the same compound?
Answer: 6.11

Question: `COc1c(F)cc(C(=O)Nc2ccc(-c3ccccc3)cc2)cc1NC(=O)CN1CCN(C)CC1` [Example 216, N-(biphenyl-4-yl)-3-fluoro-4-methoxy-5-{[(4-methylpiperazin-1-yl)acetyl]amino}benzamide] was tested. Which pIC50 [1] did it give?
Answer: 5.16

Question: And the pIC50 [2]?
Answer: 6.28

Question: With `COCCOCCOc1ccc(C(=O)Nc2ccc(-c3ccccc3)cc2)cc1NC(=O)C1(N2CCOCC2)CC1` [Example 217, N-(biphenyl-4-yl)-4-[2-(2-methoxyethoxy}ethoxy)-3-({[1-(morpholin-4-yl)cyclopropyl]carbonyl}amino)benzamide] as the compound, how does the pIC50 [1] read?
Answer: 5.79

Question: And the pIC50 [2]?
Answer: 7.57

Question: `COCCOc1ccc(C(=O)Nc2ccc(-c3ccccc3)cc2)cc1NC(=O)C1(N2CCOCC2)CC1` [Example 218, N-(biphenyl-4-yl)-4-(2-methoxyethoxy)-3-({[1-(morpholin-4-yl)cyclopropyl]carbonyl)amino)benzamide] was tested. Which pIC50 [1] did it give?
Answer: ≤ 4.30

Question: And the pIC50 [2]?
Answer: 7.96

Question: What does the source list for `O=C(CN1CCN(C2CC2)CC1)Nc1cc(C(=O)Nc2ccc(-c3ccccc3)cc2)ccc1OCC1CC1` [Example 219, N-(biphenyl-4-yl)-4-(cyclopropylmethoxy)-3-{[(4-cyclopropylpiperazin-1-yl)acetyl]amino}benzamide]?
Answer: pIC50 [1]: ≤ 4.30; pIC50 [2]: 7.18

Question: What does the source list for `O=C(CN1CCOCC1)Nc1cc(C(=O)Nc2ccc(-c3ccccc3)cc2)ccc1OCC1CC1` [Example 220, N-(biphenyl-4-yl)-4-(cyclopropylmethoxy)-3-[(morpholin-4-ylacetyl)amino)benzamide]?
Answer: pIC50 [1]: ≤ 4.30; pIC50 [2]: 6.80

Question: Which results are given for `COCCOCCOc1ccc(C(=O)Nc2ccc(-c3ccc(C)cc3)cc2)cc1NC(=O)C1(N2CCOCC2)CC1` [Example 221, 4-[2-(2-methoxyethoxy)ethoxy]-N-(4′-methylbiphenyl-4-yl)-3-({[1-(morpholin-4-yl)cyclopropyl]carbonyl}amino)benzamide]?
Answer: pIC50 [1]: ≤ 4.30; pIC50 [2]: 5.96

Question: With `CN1CCN(CC(=O)Nc2cc(C(=O)Nc3ccc(-c4ccccc4)cc3)ccc2OCC2CC2)CC1` [Example 222, N-(biphenyl-4-yl)-4-(cyclopropylmethoxy)-3-{[(4-methylpiperazin-1-yl)acetyl]amino}benzamide] as the compound, how does the pIC50 [1] read?
Answer: 5.05

Question: And the pIC50 [2]?
Answer: 6.98

Question: What does the source list for `O=C(Nc1ccc([N+](=O)[O-])cc1Cl)c1cc(Cl)ccc1O` [Ref., niclosamide, reference compound]?
Answer: pIC50 [1]: 5.51; pIC50 [2]: 5.86
